# pIC50: −log10 of the molar value.
# Test system: 192522-019-R-J2-PDC complex tumor spheroid viability
# Experiment: Anticancer human tumor 192522-019-R-J2-PDC patient-derived colon adenocarcinoma cell line growth inhibition [POLQ]
# Details: for pIC50: curve of first compound; for viability, T/C: stronger effect = lower value
# Experimental: Multicellular complex tumor spheroid response to Polymerase (POL) inhibitors (novobiocin, ART-558, RP6685) in combination with a variety of drugs and investigational agents in selected tumor cell lines
# The POL inhibitors (novobiocin, ART-558, and RP6685) were evaluated both individually and in combination with standard of care and investigational anticancer small molecules within a complex spheroid model of solid tumors. . Complex spheroids include a stromal component modeled by human endothelial cells (HUVEC) and fibroblasts modeled by human mesenchymal stem cells (MSCs). The concentration ranges selected for each drug and investigational agent were based upon clinically achievable concentrations if the clinical Cmax of the agent was known.
# Compounds. The drugs and investigational agents: novobiocin (NSC847541), ART-558 (NSC835418), RP-6685 (NSC848927), peposertib (NSC802822), ceralasertib (NSC780249), elimusertib (NSC800525), camonsertib (NSC841442), AZD-1390 (NSC803789), olaparib (NSC753686), talazoparib (NSC767125), rucaparib (NSC756644), sotorasib (NSC818433), MRTX-1133 (NSC836407), SN-38 (NSC673596), topotecan (NSC609699), epotoside (NSC141540), doxorubicin (NSC123127), gemcitabine (NSC613327), 5-fluorouracil (NSC19893), paclitaxel (NSC125973), vemurafenib (NSC761431), MSA-2 (NSC828583), SN-011 (NSC837082), adavosertib (NSC754352), prexasertib (NSC758257), carboplatin (NSC241240) and oxaliplatin (NSC266046), were obtained from the National Cancer Institute (NCI) Developmental Therapeutics Program Chemical Repository (21). The FDA-approved anticancer drug set is available from the Developmental Therapeutics Program at https://dtp.cancer.gov/organization/dscb/obtaining/. […] The stock solutions were prepared in dimethyl sulfoxide (DMSO, Sigma-Aldrich, St. Louis, MO, cat. D2650), except for the platinum compounds which were prepared in saline (Quality Biological, Gaithersburg, MD, cat. 114-055-101), at 800-fold the tested concentration and stored at -70 degrees C prior to their use. All drugs and investigational agents were tested over a range starting from a high concentration at or near the clinical Cmax and decreasing in half-log increments. If the clinical Cmax for an agent had not been determined, the highest concentration tested was 10 microM, except for SN-38, which was tested at a high concentration of 1 microM.
# Cell Culture. All cells were maintained in an incubator at 37 degrees C and 5% CO2 with 95% humidity. The PDC lines were cultured according to standard operating procedures established by the NCI PDMR (https://pdmr.cancer.gov). Table 3 of the manuscript, lists the cell lines along with the number of the three cell types plated to form the mct-spheroids and media for tumor cell growth. After thawing, all PDC lines, except 997537-175-T-J1-PDC and 415267-285-R-J2-PDC, were cultured in Matrigel-coated flasks prepared with a working solution of 1X Ham's F-12 nutrient mix, without supplementation (Thermo Fisher Scientific, cat. 11765054), 100 U/mL penicillin-streptomycin (Thermo Fisher Scientific, cat. 15140122), and 2.5% Matrigel (Corning Inc., Corning, NY, cat. 354248) for the first three passages. The two PDC lines 997537-175-T-J1-PDC and 415267-285-R-J2-PDC were cultured on uncoated flasks. The 857933-349-R-J2-PDC line was cultured in 6C/Colon 1B media containing advanced DMEM/F-12 (Thermo Fisher Scientific, cat. 12634028), 10 mM HEPES (Thermo Fisher Scientific, cat. 15630080), 1X GlutaMAX supplement (Thermo Fisher Scientific, cat. 35050061), 0.1 mg/mL primocin (InvivoGen, San Diego, CA, cat. ant-pm-2), 10% defined fetal bovine serum, heat inactivated (HyClone Laboratories Inc., Logan, UT, cat. SH30070.03HI), 50% L-WRN conditioned media (ATCC, cat. CRL-3276), 1.25 mM N-Acetyl-L-cysteine (Sigma-Aldrich, cat. A9165), 10 mM nicotinamide (Sigma-Aldrich, cat. N0636), 1X B-27 supplement (Thermo Fisher Scientific, cat. 17504044), 1X N-2 supplement (Thermo Fisher Scientific, cat. […]
# [1] = second compound 0.0316 µM, first compound 0.0316 µM
# [2] = second compound 0.0316 µM, first compound 0.1 µM
# [3] = second compound 0.0316 µM, first compound 0.316 µM
# [4] = second compound 0.0316 µM, first compound 1 µM
# [5] = second compound 0.0316 µM, first compound 3.16 µM
# [6] = second compound 0.0316 µM, first compound 10 µM
# [7] = second compound 0.1 µM, first compound 0.0316 µM
# [8] = second compound 0.1 µM, first compound 0.1 µM
# [9] = second compound 0.1 µM, first compound 0.316 µM
# [10] = second compound 0.1 µM, first compound 1 µM
# [11] = second compound 0.1 µM, first compound 3.16 µM
# [12] = second compound 0.1 µM, first compound 10 µM
# [13] = second compound 0.316 µM, first compound 0.0316 µM
# [14] = second compound 0.316 µM, first compound 0.1 µM
# [15] = second compound 0.316 µM, first compound 0.316 µM
# [16] = second compound 0.316 µM, first compound 1 µM
# [17] = second compound 0.316 µM, first compound 3.16 µM
# [18] = second compound 0.316 µM, first compound 10 µM
# [19] = second compound 1 µM, first compound 0.0316 µM
# [20] = second compound 1 µM, first compound 0.1 µM
# [21] = second compound 1 µM, first compound 0.316 µM
# [22] = second compound 1 µM, first compound 1 µM
# [23] = second compound 1 µM, first compound 3.16 µM
# [24] = second compound 1 µM, first compound 10 µM
# [25] = second compound 3.16 µM, first compound 0.0316 µM
# [26] = second compound 3.16 µM, first compound 0.1 µM
# [27] = second compound 3.16 µM, first compound 0.316 µM
# [28] = second compound 3.16 µM, first compound 1 µM
# [29] = second compound 3.16 µM, first compound 3.16 µM
# [30] = second compound 3.16 µM, first compound 10 µM
# [31] = second compound 10 µM, first compound 0.0316 µM
# [32] = second compound 10 µM, first compound 0.1 µM
# [33] = second compound 10 µM, first compound 0.316 µM
# [34] = second compound 10 µM, first compound 1 µM
# [35] = second compound 10 µM, first compound 3.16 µM
# [36] = second compound 10 µM, first compound 10 µM
# 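Further: spheroids exposed to drugs for seven days before reading.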
# 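Wherever viability, T/C is given: 100% = DMSO vehicle control viability in luminescence.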
smiles,measurement,setting,value
CC(C)n1c(=O)n(C)c2cnc3cc(F)c(-c4ccc(OCCCN5CCCCC5)nc4)cc3c21 + COC1C(OC(N)=O)C(O)C(Oc2ccc3c(O)c(NC(=O)c4ccc(O)c(CC=C(C)C)c4)c(=O)oc3c2C)OC1(C)C,pIC50,second compound 0.0316 µM,< 5.00
same,pIC50,second compound 0.1 µM,< 5.00
same,pIC50,second compound 0.316 µM,< 5.00
same,pIC50,second compound 1 µM,< 5.00
same,pIC50,second compound 3.16 µM,< 5.00
same,pIC50,second compound 10 µM,< 5.00
same,"viability, T/C",[1],107%
same,"viability, T/C",[2],93.2%
same,"viability, T/C",[3],115%
same,"viability, T/C",[4],112%
same,"viability, T/C",[5],112%
same,"viability, T/C",[6],93.9%
same,"viability, T/C",[7],97.5%
same,"viability, T/C",[8],100%
same,"viability, T/C",[9],108%
same,"viability, T/C",[10],108%
same,"viability, T/C",[11],104%
same,"viability, T/C",[12],95.2%
same,"viability, T/C",[13],97.8%
same,"viability, T/C",[14],95.5%
same,"viability, T/C",[15],117%
same,"viability, T/C",[16],115%
same,"viability, T/C",[17],120%
same,"viability, T/C",[18],106%
same,"viability, T/C",[19],96.8%
same,"viability, T/C",[20],102%
same,"viability, T/C",[21],104%
same,"viability, T/C",[22],110%
same,"viability, T/C",[23],94.9%
same,"viability, T/C",[24],104%
same,"viability, T/C",[25],98.1%
same,"viability, T/C",[26],107%
same,"viability, T/C",[27],114%
same,"viability, T/C",[28],108%
same,"viability, T/C",[29],122%
same,"viability, T/C",[30],102%
same,"viability, T/C",[31],118%
same,"viability, T/C",[32],112%
same,"viability, T/C",[33],114%
same,"viability, T/C",[34],120%
same,"viability, T/C",[35],110%
same,"viability, T/C",[36],107%
CCc1cc2c(N3CCc4c(cc(Cn5ccnc5)cc4-c4cn(C)nc4C(F)(F)F)C3=O)cc(C)nc2c(OC)n1 + Cc1cccc(N(C)C(=O)C2C(O)CCN2c2nc(C)cc(C(F)(F)F)c2C#N)c1,pIC50,second compound 0.0316 µM,< 5.00
same,pIC50,second compound 0.1 µM,< 5.00
same,pIC50,second compound 0.316 µM,< 5.00
same,pIC50,second compound 1 µM,< 5.00
same,pIC50,second compound 3.16 µM,< 5.00
same,pIC50,second compound 10 µM,< 5.00
same,"viability, T/C",[1],116%
same,"viability, T/C",[2],91.1%
same,"viability, T/C",[3],83.4%
same,"viability, T/C",[4],87.9%
same,"viability, T/C",[5],72.2%
same,"viability, T/C",[6],68.1%
same,"viability, T/C",[7],99.3%
same,"viability, T/C",[8],99.4%
same,"viability, T/C",[9],88.1%
same,"viability, T/C",[10],78.5%
same,"viability, T/C",[11],75.8%
same,"viability, T/C",[12],69.6%
same,"viability, T/C",[13],112%
same,"viability, T/C",[14],99.1%
same,"viability, T/C",[15],85.4%
same,"viability, T/C",[16],79.4%
same,"viability, T/C",[17],82.7%
same,"viability, T/C",[18],72.7%
same,"viability, T/C",[19],102%
same,"viability, T/C",[20],94.9%
same,"viability, T/C",[21],84.2%
same,"viability, T/C",[22],84.6%
same,"viability, T/C",[23],78.3%
same,"viability, T/C",[24],72.6%
same,"viability, T/C",[25],107%
same,"viability, T/C",[26],98.4%
same,"viability, T/C",[27],101%
same,"viability, T/C",[28],79.8%
same,"viability, T/C",[29],82.5%
same,"viability, T/C",[30],73.9%
same,"viability, T/C",[31],110%
same,"viability, T/C",[32],103%
same,"viability, T/C",[33],93.9%
same,"viability, T/C",[34],90.1%
same,"viability, T/C",[35],86.7%
same,"viability, T/C",[36],79.3%
